From patent EP1096933B1, “USE OF AN INHIBITOR OF CYTOCHROME P450 OPTIONALLY COMBINED WITH AN ANTIFUNGAL AGENT FOR TREATING MYCOSES” (priority 1998, dated 2000)
Read-outs that look alike come from different tables or passages of the source.

Assays:
Assay in all cases: growth of strains streaked on Sabouraud agar containing the products
Format in all cases: cell-based
Epidermophyton floccosum = settings: Epid.Flocosum, read-out: % DE CROISSANCE
Experimental: (§1) Ces molécules ont été incorporées dans un milieu gélosé dit de Sabouraud (peptone 10g/l, glucose 10 g/l, gomme agar 15 g/l).
(§2) Des souches de diverses espèces de champignons ont été ensemencées par stries par la méthode de Stires.
(§3) Le pourcentage de croissance a été mesuré au cours du temps, pour des périodes allant jusqu'à 21 jours, pour certaines des souches testées.
(§4) Les quantités de pipéronyl butoxyde, et de cyclopyroxolamine utilisées sont identiques et sont de 10 ou 20 µg/ml dans le cas de l'association entre ces deux composés.
(§5) Dans le cas de l'association entre le pipéronyl butoxyde et l'éconazole, elles sont respectivement de 10 ou 20 µg/ml de pipéronyl butoxyde et de 1 µg/ml d'éconazole.
(§6) Des souches appartenant aux espèces suivantes ont été testées: Microsporum canis, Trichophyton rubrum, Trichophyton interdigitale, Trichophyton mentagrophytes, Microsporum persicolor, Epidermophyton floccosum, Trichophyton violaceum et Trichophyton soudanense.
(§7) L'activité du pipéronyl butoxyde seul a été testée à diverses concentrations, comme indiqué dans le tableau 1 sur le milieu de Sabouraud, dépourvu de tout autre fongicide.

Microsporum canis = settings: read-out: % DE CROISSANCE; for activity at 1 µg/mL: Micro. Canis
Experimental: as §1, §2, §3, §4, §5, §6, §7

Microsporum persicolor = settings: Nannizzia persicolor, Micro.Persicolor, read-out: % DE CROISSANCE; for activity at 1 µg/mL: Econazole 1µg/ml; for activity at 10 µg/mL: 10µg/ml each product
Experimental: as §1, §2, §3, §4, §5, §6, §7

[1] = test system: Trichophyton interdigitale; settings: Tric.Interdigitale, read-out: % DE CROISSANCE
Experimental: as §1, §2, §3, §4, §5, §6, §7

[2] = test system: Trichophyton mentagrophytes; settings: Tric.Mentagophytes, read-out: % DE CROISSANCE
Experimental: as §1, §2, §3, §4, §5, §6, §7

Trichophyton rubrum = settings: Tric.Rubrum, read-out: % DE CROISSANCE
Experimental: as §1, §2, §3, §4, §5, §6, §7

Trichophyton soudanense = settings: Tric.Soudanese, read-out: % DE CROISSANCE
Experimental: as §1, §2, §3, §4, §5, §6, §7

Trichophyton violaceum = settings: Tric.Violaceum, read-out: % DE CROISSANCE
Experimental: as §1, §2, §3, §4, §5, §6, §7

[3] = 144 h, J6, 10µg/ml each product
[4] = 240 h, J10, 10µg/ml each product
[5] = 336 h, J14, 10µg/ml each product
[6] = 144 h, J6, 20µg/ml each product
[7] = 240 h, J10, 20µg/ml each product
[8] = 336 h, J14, 20µg/ml each product

With `Clc1ccc(COC(Cn2ccnc2)c2ccc(Cl)cc2Cl)cc1` (centres unmarked) [Econazole, éconazole] the activity at 1 µg/mL (Epidermophyton floccosum; 0 h, J0, Econazole 1µg/ml) was 0%, the activity at 1 µg/mL (Epidermophyton floccosum; 96 h, J4, Econazole 1µg/ml) was 0% and the activity at 1 µg/mL (Epidermophyton floccosum; 144 h, J6, Econazole 1µg/ml) was 0%. For the same molecule, the activity at 1 µg/mL (Epidermophyton floccosum; 240 h, J10, Econazole 1µg/ml) was 5%, the activity at 1 µg/mL (Epidermophyton floccosum; 336 h, J14, Econazole 1µg/ml) was 10% and the activity at 1 µg/mL (Microsporum canis; 0 h, J0, Econazole 1µg/ml) was 0%. It also gave an activity at 1 µg/mL (Microsporum canis; 96 h, J4, Econazole 1µg/ml) of 0%, an activity at 1 µg/mL (Microsporum canis; 144 h, J6, Econazole 1µg/ml) of 10% and an activity at 1 µg/mL (Microsporum canis; 240 h, J10, Econazole 1µg/ml) of 40%. The activity at 1 µg/mL (Microsporum canis; 336 h, J14, Econazole 1µg/ml) was 80%, the activity at 1 µg/mL (Microsporum persicolor; 0 h, J0) was 0% and the activity at 1 µg/mL (Microsporum persicolor; 96 h, J4) was 0%. It also gave an activity at 1 µg/mL (Microsporum persicolor; 144 h, J6) of 0%, an activity at 1 µg/mL (Microsporum persicolor; 240 h, J10) of 15% and an activity at 1 µg/mL (Microsporum persicolor; 336 h, J14) of 50%. It also gave an activity at 1 µg/mL ([1]; 0 h, J0, Econazole 1µg/ml) of 0%, an activity at 1 µg/mL ([1]; 96 h, J4, Econazole 1µg/ml) of 5% and an activity at 1 µg/mL ([1]; 144 h, J6, Econazole 1µg/ml) of 5%. It also gave an activity at 1 µg/mL ([1]; 240 h, J10, Econazole 1µg/ml) of 40%, an activity at 1 µg/mL ([1]; 336 h, J14, Econazole 1µg/ml) of 60% and an activity at 1 µg/mL ([2]; 0 h, J0, Econazole 1µg/ml) of 0%. It also gave an activity at 1 µg/mL ([2]; 96 h, J4, Econazole 1µg/ml) of 5%, an activity at 1 µg/mL ([2]; 144 h, J6, Econazole 1µg/ml) of 10% and an activity at 1 µg/mL ([2]; 240 h, J10, Econazole 1µg/ml) of 30%. The activity at 1 µg/mL ([2]; 336 h, J14, Econazole 1µg/ml) was 40%, the activity at 1 µg/mL (Trichophyton rubrum; 0 h, J0, Econazole 1µg/ml) was 0% and the activity at 1 µg/mL (Trichophyton rubrum; 96 h, J4, Econazole 1µg/ml) was 0%. For the same molecule, the activity at 1 µg/mL (Trichophyton rubrum; 144 h, J6, Econazole 1µg/ml) was 20%, the activity at 1 µg/mL (Trichophyton rubrum; 240 h, J10, Econazole 1µg/ml) was 60% and the activity at 1 µg/mL (Trichophyton rubrum; 336 h, J14, Econazole 1µg/ml) was 70%. It also gave an activity at 1 µg/mL (Trichophyton soudanense; 0 h, J0, Econazole 1µg/ml) of 0%, an activity at 1 µg/mL (Trichophyton soudanense; 96 h, J4, Econazole 1µg/ml) of 0% and an activity at 1 µg/mL (Trichophyton soudanense; 144 h, J6, Econazole 1µg/ml) of 0%. For the same molecule, the activity at 1 µg/mL (Trichophyton soudanense; 240 h, J10, Econazole 1µg/ml) was 30%, the activity at 1 µg/mL (Trichophyton soudanense; 336 h, J14, Econazole 1µg/ml) was 60% and the activity at 1 µg/mL (Trichophyton violaceum; 0 h, J0, Econazole 1µg/ml) was 0%. It also gave an activity at 1 µg/mL (Trichophyton violaceum; 96 h, J4, Econazole 1µg/ml) of 0%, an activity at 1 µg/mL (Trichophyton violaceum; 144 h, J6, Econazole 1µg/ml) of 40% and an activity at 1 µg/mL (Trichophyton violaceum; 240 h, J10, Econazole 1µg/ml) of 60%. It also gave an activity at 1 µg/mL (Trichophyton violaceum; 336 h, J14, Econazole 1µg/ml) of 100%.

`Cc1cc(C2CCCCC2)n(O)c(=O)c1` [Cyclopiroxolamine, cyclopiroxolamine] showed an activity at 10 µg/mL (Epidermophyton floccosum; 0 h, J0, 10µg/ml each product) of 0%, an activity at 10 µg/mL (Epidermophyton floccosum; 96 h, J4, 10µg/ml each product) of 0% and an activity at 10 µg/mL (Epidermophyton floccosum; [3]) of 0%. It also gave an activity at 10 µg/mL (Epidermophyton floccosum; [4]) of 85%, an activity at 10 µg/mL (Epidermophyton floccosum; [5]) of 100% and an activity at 20 µg/mL (Microsporum canis; 0 h) of 0%. The activity at 20 µg/mL (Microsporum canis; 96 h) was 5%, the activity at 20 µg/mL (Microsporum canis; 144 h) was 20% and the activity at 20 µg/mL (Microsporum canis; 240 h) was 60%. The activity at 20 µg/mL (Microsporum canis; 336 h) was 100%, the activity at 10 µg/mL (Microsporum persicolor; 0 h, J0) was 0% and the activity at 10 µg/mL (Microsporum persicolor; 96 h, J4) was 0%. The activity at 10 µg/mL (Microsporum persicolor; 144 h, J6) was 30%, the activity at 10 µg/mL (Microsporum persicolor; 240 h, J10) was 75% and the activity at 10 µg/mL (Microsporum persicolor; 336 h, J14) was 100%. For the same molecule, the activity at 20 µg/mL ([1]; 0 h, J0, 20µg/ml each product) was 0%, the activity at 20 µg/mL ([1]; 96 h, J4, 20µg/ml each product) was 5% and the activity at 20 µg/mL [1, 6] was 10%. The activity at 20 µg/mL [1, 7] was 80%, the activity at 20 µg/mL [1, 8] was 90% and the activity at 20 µg/mL ([2]; 0 h, J0, 20µg/ml each product) was 0%. It also gave an activity at 20 µg/mL ([2]; 96 h, J4, 20µg/ml each product) of 5%, an activity at 20 µg/mL [2, 6] of 60% and an activity at 20 µg/mL [2, 7] of 100%. For the same molecule, the activity at 20 µg/mL [2, 8] was 100%, the activity at 20 µg/mL (Trichophyton rubrum; 0 h, J0, 20µg/ml each product) was 0% and the activity at 20 µg/mL (Trichophyton rubrum; 96 h, J4, 20µg/ml each product) was 0%. The activity at 20 µg/mL (Trichophyton rubrum; [6]) was 50%, the activity at 20 µg/mL (Trichophyton rubrum; [7]) was 80% and the activity at 20 µg/mL (Trichophyton rubrum; [8]) was 100%. The activity at 10 µg/mL (Trichophyton soudanense; 0 h, J0, 10µg/ml each product) was 0%, the activity at 10 µg/mL (Trichophyton soudanense; 96 h, J4, 10µg/ml each product) was 0% and the activity at 10 µg/mL (Trichophyton soudanense; [3]) was 0%. The activity at 10 µg/mL (Trichophyton soudanense; [4]) was 30%, the activity at 10 µg/mL (Trichophyton soudanense; [5]) was 60% and the activity at 10 µg/mL (Trichophyton violaceum; 0 h, J0, 10µg/ml each product) was 0%. It also gave an activity at 10 µg/mL (Trichophyton violaceum; 96 h, J4, 10µg/ml each product) of 0%, an activity at 10 µg/mL (Trichophyton violaceum; [3]) of 40% and an activity at 10 µg/mL (Trichophyton violaceum; [4]) of 60%. The activity at 10 µg/mL (Trichophyton violaceum; [5]) was 100%.
